# Results published in patent US20240059740A1, “CYCLIC PEPTIDES AND USES THEREOF” (PRE[…] INC., priority 2020, published 2024).
# Tests used:
# recombinant MMP-2 = target: T1, recombinant MMP-2 (Homo sapiens, UniProt P08253); assay: MMP-2 Inhibitor Screening Assay Kit (colorimetric); format: biochemical; settings: lower value = higher inhibitory activity
# T1 construct: purchased ab139446
# T1 sequence (P08253 110-660): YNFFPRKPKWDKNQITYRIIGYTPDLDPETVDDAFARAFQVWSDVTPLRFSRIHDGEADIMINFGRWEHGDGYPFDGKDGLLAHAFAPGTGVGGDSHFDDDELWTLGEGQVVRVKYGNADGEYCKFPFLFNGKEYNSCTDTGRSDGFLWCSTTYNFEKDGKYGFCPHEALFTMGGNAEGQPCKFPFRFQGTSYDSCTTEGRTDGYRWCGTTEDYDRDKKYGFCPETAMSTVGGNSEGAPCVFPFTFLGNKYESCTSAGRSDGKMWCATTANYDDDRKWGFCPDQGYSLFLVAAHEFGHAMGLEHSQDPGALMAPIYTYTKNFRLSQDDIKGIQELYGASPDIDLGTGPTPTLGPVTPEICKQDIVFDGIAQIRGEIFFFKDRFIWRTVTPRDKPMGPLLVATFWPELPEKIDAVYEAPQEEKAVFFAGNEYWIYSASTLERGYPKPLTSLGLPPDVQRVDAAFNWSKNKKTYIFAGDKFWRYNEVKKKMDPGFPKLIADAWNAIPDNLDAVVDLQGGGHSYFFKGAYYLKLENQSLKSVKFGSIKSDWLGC
# Method: MMP-2 is an important target for inhibitor screening due to its involvement in cancer growth, angiogenesis, and metastasis. The MMP-2 screening assay was carried out with a commercially available MMP-2 Inhibitor Screening Assay Kit (Colorimetric, Catalog: ab139446) based on the manufacturers protocol. This assay is based on quantification of recombinant MMP-2 activity using a colorimetric assay (MMP-2 degrades a chromogenic substrate). The assay provides NNGH (N-isobutyl-N-(4-methoxyphenylsulfonyl) glycyl hydroxamic acid), a small molecule inhibitor, as a positive control (NNGH). […] Each determination was run in duplicate.
# % Inhibition rate=(Vinhibitor/Vcontrol)×100
# Briefly, MMP Substrate and MMP Inhibitor were warmed to room temperature to thaw DMSO. MMP Inhibitor (NNGH), MMP-2 substrate and MMP-2 enzyme were diluted with assay buffer to required concentration. 20 μL of MMP-2 enzyme and MMP-2 inhibitor (peptides, Chlorotoxin and NNGH) was added, then 50 μL of assay buffer was added and the reaction mixture incubated at 37° C. for 1 h. After incubation, 10 μL of MMP Substrate was added to start reaction. The reactions were continuously read at 412 nm in a microplate reader. Data was recorded at 1 min. time intervals for 10 to 20 min. The data as was plotted as optical density (OD) versus time for each sample. The reaction velocity (V) was obtained in OD/min: determine the slope of a line fit to the linear portion of the data plot using an appropriate routine. Then using the equation above the inhibitor % activity remaining was calculated. The control was without inhibitor.
# U251 cells = assay: BME cell invasion assay, U251; format: cell-based, human; settings: 1 μM, 24 h
# Method: (§1) To assess whether the ability of SEQ ID NO.1 to inhibit MMP-2 activity and, to a lesser extent, reduce the production of matrix proteinases and downregulate the expression of EMT markers, was of functional consequence in reducing the invasiveness of the GBM cells, the ability of the peptide was tested at the concentrations of 1, 10 and 100 μM (none of which are toxic to cells) to inhibit invasion of the GBM cells through a basement membrane. This assay, described in more detail below, is an in vitro surrogate for measurement of the in vivo invasion by tumour cells of their environment.
# (§2) The cell invasion assay employs a simplified Boyden chamber-like design that consists of two chambers separated by a filter (an 8 μm polycarbonate (PC) membrane) coated with basement membrane or different extracellular matrix components. The cell suspension is placed in the top chamber and incubated in the presence of test media containing specific chemo-attractants in the bottom chamber. Cells migrate from the top chamber to the bottom of the filter by degrading the coating over the filter pores. Detection of cell invasion is quantified using Calcein AM. Cell dissociation/Calcein AM solution is placed in the bottom chamber to dissociate the migrating cells from the filter. Calcein AM is internalized by the cells, and intracellular-esterases cleave the aceto-methylester (AM) moiety. Free Calcein fluoresces brightly and is used to quantitate the number of cells that have invaded or migrated by comparison with a standard curve (In Vitro Technologies Pty Ltd, (https://lifescience.invitro.com.au/brands/r-and-d-systems/).
# (§3) The filter was coated with PathClear® growth factor reduced BME. The selected peptides were applied to the cells in both upper and lower wells to make sure the concentration of peptides were the same and the chemoattractant was serum at a concentration of 2% (for adherent U87 & U251 cells) or growth factor mix required in the medium (for non- adherent, 081024 oncospheres).
# (§4) Cell invasion was determined using CultureCoat® 96 Well Medium BME Cell Invasion assay. Briefly, the cells were pre-starved 24 h before harvest. Then seeding 25,000 per well of cell in the upper chamber with serum free medium together different concentration of peptide. The bottom chamber also added different concentration of peptides with 2% (V/V) serum for GBM adherent cells or growth factor mix for neurosphere cells as chemoattractant. After 24 h incubation, the invading cells were measured by Calcein AM and calculated based on standard curve.
# (§5) The results are shown in Table 12, the results are expressed as % inhibition.
# U87 cells = assay: BME cell invasion assay, U87; format: cell-based, human; settings: 1 μM, 24 h
# Method: as §1, §2, §3, §4, §5
# 081024 cells = assay: BME cell invasion assay, 081024; format: cell-based, human; settings: 1 μM, 24 h
# Method: as §1, §2, §3, §4, §5
Compound,remaining activity (recombinant MMP-2; 1.3 μM) [%],Invasion Inhibition Index (%) (U251 cells),"remaining activity (recombinant MMP-2; 1 μM, 1 h preincubation at 37° C.) [%]",Invasion Inhibition Index (%) (U87 cells),Invasion Inhibition Index (%) (081024 cells)
"COc1ccc(S(=O)(=O)N(CC(=O)NO)CC(C)C)cc1 [NNGH, N-isobutyl-N-(4-methoxyphenylsulfonyl) glycyl hydroxamic acid, reference compound]",2.29,,,,
Chlorotoxin [reference compound],,28.50,67.94,39.5,45.0
